Reference: patent publication US12310365B2 (priority 2009, dated 2025)

Assays:
Type in all cases: in vivo
[1] = system: Botrytis cinerea (Diethofencarb-resistant strain); assay: Tomato gray mold preventive test (Diethofencarb-resistant strain)
[2] = system: Pseudoperonospora cubensis; assay: Cucumber downy mildew preventive test; conditions: for pest or weed control at 20 ppm: treatment concentration 20 ppm
[3] = system: Pseudoperonospora cubensis; assay: Cucumber downy mildew curative test; conditions: single ingredient; for pest or weed control at 20 ppm: treatment concentration 20 ppm
[4] = system: Sphaerotheca fuliginea; assay: Cucumber powdery mildew preventive test; conditions: Podosphaera fuliginea, topical, 168 h
[5] = system: Sphaerotheca fuliginea; assay: Cucumber powdery mildew curative test; conditions: Podosphaera fuliginea, topical, 168 h
[6] = Botrytis cinerea, topical, 48 h, read-out: Control value
[7] = Pseudoperonospora cubensis, topical, 168 h, treatment concentration 10 ppm
[8] = treatment concentration 1.7 ppm
[9] = treatment concentration 4.4 ppm
[10] = treatment concentration 7.5 ppm
[11] = treatment concentration 55.3 ppm
[12] = Pseudoperonospora cubensis, topical, 168 h
[13] = treatment concentration 160 ppm
[14] = Pseudoperonospora cubensis, topical, 168 h, treatment concentration 9.4 ppm

Molecule: N#Cc1c[nH]cc1-c1cccc2c1OC(F)(F)O2 [Fludioxonil]
- pest or weed control at 20 ppm [1, 6]: 67%

Molecule: CC(C)OC(=O)N[C@H](C(=O)N[C@H](C)c1nc2ccc(F)cc2s1)C(C)C [Benthiavalicarb-isopropyl]
- pest or weed control at 10 ppm [2, 7]: 40%
- pest or weed control at 10 ppm [3, 7]: 67%

Molecule: COCC(=O)N(c1c(C)cccc1C)[C@H](C)C(=O)OC [Metalaxyl M]
- Control value ([2]; treatment concentration 10 ppm): 60
- Control value ([3]; treatment concentration 10 ppm): 83

Molecule: OC(c1ccc(Cl)cc1)(c1cncnc1)c1ccccc1Cl (stereo not shown) [Fenarimol]
- pest or weed control at 4 ppm ([4]; treatment concentration 4 ppm): 67%
- pest or weed control at 4 ppm ([5]; treatment concentration 4 ppm): 78%

Molecule: O=C(Cc1ccccc1)N/C(=N\OCC1CC1)c1c(C(F)(F)F)ccc(F)c1F [Cyflufenamid]
- pest or weed control at 1.7 ppm [4, 8]: 33%
- pest or weed control at 1.7 ppm [5, 8]: 67%

Molecule: CCCOC/C(=N\c1ccc(Cl)cc1C(F)(F)F)n1ccnc1 [Triflumizole]
- pest or weed control at 6 ppm ([4]; treatment concentration 6 ppm): 33%
- pest or weed control at 6 ppm ([5]; treatment concentration 6 ppm): 67%

Molecule: COCC(=O)N(c1c(C)cccc1C)C(C)C(=O)OC (stereo not shown) [Metalaxyl]
- pest or weed control at 10 ppm [2, 7]: 60%
- pest or weed control at 10 ppm [3, 7]: 92%

Molecule: Clc1ccc(CSC(Cn2cncn2)=Nc2ccc(Cl)cc2Cl)cc1 [Imibenconazole]
- pest or weed control at 15 ppm ([4]; treatment concentration 15 ppm): 33%
- pest or weed control at 15 ppm ([5]; treatment concentration 15 ppm): 75%

Molecule: C[C@@]1(c2ccc(Oc3ccccc3)cc2)OC(=O)N(Nc2ccccc2)C1=O (racemic) [Famoxadone]
- pest or weed control at 10 ppm [2, 7]: 0%
- pest or weed control at 10 ppm [3, 7]: 92%

Molecule: CC(C)(C)C(O)(CCc1ccc(Cl)cc1)Cn1cncn1 (stereo not shown) [Tebuconazole]
- pest or weed control at 20 ppm ([4]; treatment concentration 20 ppm): 33%
- pest or weed control at 20 ppm ([5]; treatment concentration 20 ppm): 67%

Molecule: CCNc1nc(CC)c(C(=O)NC(C#N)c2cccs2)s1 (stereo not shown) [Ethaboxam]
- Control value ([2]; treatment concentration 10 ppm): 20
- Control value ([3]; treatment concentration 10 ppm): 67

Molecule: N#CC(CCc1ccc(Cl)cc1)(Cn1cncn1)c1ccccc1 (stereo not shown) [Fenbuconazole]
- pest or weed control at 4.4 ppm [4, 9]: 27%
- pest or weed control at 4.4 ppm [5, 9]: 75%

Molecule: O=[N+]([O-])c1cc(C(F)(F)F)c(Cl)c([N+](=O)[O-])c1Nc1ncc(C(F)(F)F)cc1Cl [Fluazinam]
- pest or weed control at 20 ppm [1, 6]: 0%

Molecule: COC(=O)NC(=S)Nc1ccccc1NC(=S)NC(=O)OC [Thiophanate-methyl]
- pest or weed control at 70 ppm [1, 6]: 43%

Molecule: Mancozeb
- Control value [2, 10]: 60
- Control value [3, 10]: 67

Molecule: [Cu+2].[OH-].[OH-] [cupric hydroxide]
- Control value [2, 11]: 40
- Control value [3, 11]: 50

Molecule: O=C(Nc1ccccc1-c1ccc(Cl)cc1)c1cccnc1Cl [Boscalid]
- pest or weed control at 50 ppm [1, 6]: 17%

Molecule: O=C1C2CC=CCC2C(=O)N1SC(Cl)(Cl)Cl (stereo not shown) [Captan]
- pest or weed control at 133.3 ppm [1, 6]: 33%

Molecule: Maneb
- Control value ([1]; treatment concentration 177.5 ppm): 17

Molecule: COc1ccc(C(=CC(=O)N2CCOCC2)c2ccc(Cl)cc2)cc1OC [Dimethomorph]
- pest or weed control at 20 ppm [2, 12]: 60%
- pest or weed control at 20 ppm [3, 12]: 50%

Molecule: CO/C=C(/C(=O)OC)c1ccccc1Oc1cc(Oc2ccccc2C#N)ncn1 [Azoxystrobin]
- Control value ([2]; treatment concentration 8 ppm): 60
- Control value ([3]; treatment concentration 8 ppm): 92

Molecule: CC(C)NC(=O)N1CC(=O)N(c2cc(Cl)cc(Cl)c2)C1=O [Iprodione]
- pest or weed control at 50 ppm [1, 6]: 67%

Molecule: CC1(C)COC(C)(CCCc2ccc(Cl)cc2)N1C(=O)n1ccnc1.CC1(C)COC(C)(CCCc2ccc(Cl)cc2)N1C(=O)n1ccnc1.O=C(O)/C=C/C(=O)O (stereo not shown) [Oxpoconazole fumarate]
- Control value ([1]; treatment concentration 10 ppm): 0

Molecule: Fosetyl-aluminium
- Control value [2, 13]: 60
- Control value [3, 13]: 67

Molecule: CCNC(=O)NC(=O)/C(C#N)=N/OC [Cymoxanil]
- pest or weed control at 20 ppm [2, 12]: 60%
- pest or weed control at 20 ppm [3, 12]: 67%

Molecule: CC(C)CC(C)c1sccc1NC(=O)c1cn(C)nc1C(F)(F)F (stereo not shown) [Penthiopyrad]
- pest or weed control at 10 ppm [1, 6]: 33%

Molecule: CC12CC1(C)C(=O)N(c1cc(Cl)cc(Cl)c1)C2=O (stereo not shown) [Procymidone]
- pest or weed control at 50 ppm [1, 6]: 17%

Molecule: CCOc1ccc(NC(=O)OC(C)C)cc1OCC [Diethofencarb]
- pest or weed control at 12.5 ppm [1, 6]: 0%

Molecule: CC1(C(=O)Nc2ccc(O)c(Cl)c2Cl)CCCCC1 [Fenhexamid]
- pest or weed control at 50 ppm [1, 6]: 50%

Molecule: Cc1ccc(-c2c(Cl)nc(C#N)n2S(=O)(=O)N(C)C)cc1 [Cyazofamid]
- pest or weed control at 9.4 ppm [2, 14]: 40%
- pest or weed control at 9.4 ppm [3, 14]: 67%

Molecule: Iminoctadine trialbesilate
- Control value ([1]; treatment concentration 40 ppm): 67
